These are literature values, as cited in US20150140121A1, “Compositions and Methods for Tight Junction Modulation” (Lankenau Institute for Medical Research, priority 2012, published 2015).

In series [1] the test system is mammary epithelial barrier. Particulars: selenium (e.g., 100 ng/ml), Martin et al. 2007; cited from earlier work.
For another series, the system named is ZO-1. Particulars: selenium (e.g., 100 ng/ml); Martin et al. 2007; cited from earlier work.
Series [2] concerns occludin. As to conditions: selenium (e.g., 100 ng/ml); Martin et al. 2007; cited from earlier work.
In series [3] the test system is mammary epithelial barrier. Particulars: selenium at supplemental concentration (e.g., 100 ng/ml); Martin et al. 2007; cited from earlier work.
In a further series the test system is claudin-4. As to conditions: berberine; CACO-2 and HT-29/B6 cell layers; cited from earlier work.
Series [4] has as its system occludin. As to conditions: CACO-2 and HT-29/B6 cell layers, cited from earlier work.
In another series the test system is claudin-1. As to conditions: berberine; CACO-2 and HT-29/B6 cell layers; cited from earlier work.
The test system of series [5] is colonc epithelial (CACO-2 and HT-29/B6) cell layers. Particulars: berberine 50 micromolar, Li et al. 2010, Amasheh et al. 2010; cited from earlier work.
The subject of the next series is claudin 3. As to conditions: berberine; CACO-2 and HT-29/B6 cell layers; cited from earlier work.
Another series deals with claudin 7. Particulars: berberine; CACO-2 and HT-29/B6 cell layers; cited from earlier work.
In another series the test system is claudin 5. As to conditions: berberine; CACO-2 and HT-29/B6 cell layers; cited from earlier work.
A further series has as its system claudin 2. Particulars: berberine; CACO-2 and HT-29/B6 cell layers; cited from earlier work.

`[Se]` [Selenium]: in series [1], the “paracellular invasion of cancer cells” value is “decreased”. The “cellular redistribution of ZO-1 from cytosolic to junctional regions” value in the series with ZO-1 is listed as “cellular redistribution”. Moreover, the “cellular redistribution of occludin from cytosolic to junctional regions” value with occludin [2] is given as “cellular redistribution”. The Rt entry in series [3] is recorded as “increased”.
Regarding `COc1ccc2cc3[n+](cc2c1OC)CCc1cc2c(cc1-3)OCO2` [berberine], the “amount of claudin 4” value in the series with claudin-4 is on record as “no effect”. Besides, the “occludin redistribution that ensues from proinflammatory cytokine exposure” value in the series on occludin [4] (berberine 50 micromolar) is “prevents”. Besides, the amount of occludin result with occludin [4] (berberine) is on record as “no effect”. Also, in the series on claudin-1, the “cellular amount of claudin 1” value is reported as “Strong effects”. For the same molecule, the “TJ leakiness that ensues from proinflammatory cytokine exposure” value in [5] is given as “prevents”. Besides, the “amount of claudin 3” value with claudin 3 was “no effect”. The “amount of claudin 7” value in the series on claudin 7 is listed as “no effect”. In addition, in the series on claudin 5, the “amount of claudin 5” value is reported as “no effect”. In addition, the “cellular amount of claudin 2” value with claudin 2 is recorded as “Strong effects”.
